# Reference: US20210024545A1, “SUBSTITUTED DIAZAHETERO-BICYCLIC COMPOUNDS AND THEIR USE” (Bayer Aktiengesellschaft, priority 2016, published 2021)
# What was measured:
# human TASK-3 = human TASK-3 (Homo sapiens, UniProt Q9NPC2); assay: Inhibition of recombinant TASK-3 in stably transfected CHO cells, KCl-induced depolarization, voltage-sensitive dye (B-2); assay type: cell-based; parameters: expressed in transfected cells; host or cells: stably transfected CHO cells; settings: depolarization induced by 40 mM potassium chloride, some mean values from multiple determinations
# Protocol: (§1) B-2. Inhibition of Recombinant TASK-1 and TASK-3 In Vitro
# (§2) The investigations on the inhibition of the recombinant TASK-1 and TASK-3 channels were conducted using stably transfected CHO cells. The compounds of the invention were tested here with administration of 40 mM of potassium chloride in the presence of a voltage-sensitive dye using the method described in detail in the following references [Whiteaker et al., Validation of FLIPR membrane potential dye for high-throughput screening of potassium channel modulators, J. Biomol. Screen. 6 (5), 305-312 (2001); Molecular Devices FLIPR Application Note: Measuring membrane potential using the FLIPR® membrane potential assay kit on Fluorometric Imaging Plate Reader (FLIPR®) systems, http://www.moleculardevices.com/reagents-supplies/assay-kits/ion-channels/flipr-membrane-potential-assay-kits]. The activity of the test substances was determined as their ability to inhibit a depolarization induced in the recombinant cells by 40 mM potassium chloride. The concentration which can block half of this depolarization is referred to as IC50).
# (§3) Table 2 below lists the IC50 values from this assay determined for individual working examples of the invention (some as mean values from multiple independent individual determinations): […]
# human TASK-1 = human TASK-1 (Homo sapiens, UniProt O14649); assay: Inhibition of recombinant TASK-1 in stably transfected CHO cells, KCl-induced depolarization, voltage-sensitive dye (B-2); assay type: cell-based; parameters: expressed in transfected cells; host or cells: stably transfected CHO cells; settings: depolarization induced by 40 mM potassium chloride, some mean values from multiple determinations
# Protocol: as §1, §2, §3
# Sequence of human TASK-1 (O14649 whole entry): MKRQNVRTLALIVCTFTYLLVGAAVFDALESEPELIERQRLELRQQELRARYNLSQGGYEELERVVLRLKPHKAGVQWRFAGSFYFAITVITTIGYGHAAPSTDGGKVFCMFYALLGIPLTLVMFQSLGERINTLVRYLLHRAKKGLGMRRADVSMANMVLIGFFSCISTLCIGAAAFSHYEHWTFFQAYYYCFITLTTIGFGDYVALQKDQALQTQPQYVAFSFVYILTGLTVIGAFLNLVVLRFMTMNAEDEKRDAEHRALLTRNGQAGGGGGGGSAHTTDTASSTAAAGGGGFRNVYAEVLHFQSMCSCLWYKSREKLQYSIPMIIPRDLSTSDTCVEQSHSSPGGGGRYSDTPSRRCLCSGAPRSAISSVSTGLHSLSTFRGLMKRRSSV
# Sequence of human TASK-3 (Q9NPC2 whole entry): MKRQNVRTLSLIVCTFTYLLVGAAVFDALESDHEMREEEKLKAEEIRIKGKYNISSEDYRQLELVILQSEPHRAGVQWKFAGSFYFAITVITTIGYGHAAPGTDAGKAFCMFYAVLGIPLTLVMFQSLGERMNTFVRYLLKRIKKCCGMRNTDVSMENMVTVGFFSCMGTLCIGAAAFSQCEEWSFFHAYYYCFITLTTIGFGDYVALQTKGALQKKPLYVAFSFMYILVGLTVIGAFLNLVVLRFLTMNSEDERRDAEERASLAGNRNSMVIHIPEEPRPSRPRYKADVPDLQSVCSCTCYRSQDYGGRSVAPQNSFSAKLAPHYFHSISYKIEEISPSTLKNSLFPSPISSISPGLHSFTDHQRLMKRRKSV
Compound,IC50 (human TASK-3) [nM],IC50 (human TASK-1) [nM]
"COc1ccc(F)c(C(=O)N2C[C@@H]3CC[C@H]2CN3Cc2c(-c3ccc(Cl)cc3)nc3ccccn23)n1 (single isomer, unassigned; enantiomer 1) [Example 23]",170,790
"COc1ccc(Cl)c(C(=O)N2CC3CCC2CN3Cc2c(-c3ccc(Cl)cn3)nc3ccccn23)n1 (single isomer, unassigned; enantiomer 1) [Example 25, (3-Chloro-6-methoxypyridin-2-yl)(5-{[2-(5-chloropyridin-2-yl)imidaz[1,2-a]pyridin-3-yl]methyl}-2,5-diazabicyclo[2.2.2]oct-2-yl)methanone (enantiomer 1)]",5.6,120
"O=C(c1cccc(OC(F)F)n1)N1CC2CCC1CN2Cc1c(-c2ccc(Cl)cn2)nc2ccccn12 (single isomer, unassigned; enantiomer 1) [Example 200, (5-{[2(5-Chloropyridin-2-yl)imidazo[1,2-a]pyridin-3-yl]methyl}-2,5-diazabicyclo[2.2.2]oct-2-yl)[6-(difluoromethoxy)pyridin-2-yl]methanone (enantiomer 1)]",75,877
"CC(C)(C)OC(=O)N1C2COCC1CN(Cc1c(-c3ccc(Cl)cc3)nc3ccccn13)C2 [Example 4, tert-Butyl 7-{[2-(4-chlorophenyl)imidazo[1,2-a]pyridin-3-yl]methyl}-3-oxa-7,9-diazabicyclo[3.3.1]nonane-9-carboxylate]",43,560
CC(C)(C)OC(=O)N1CC2CCC(C1)N2Cc1c(-c2ccc(Br)cc2)nc2ccccn12 [Example 5],150,200
CC(C)(C)OC(=O)N1CC2CCC(C1)N2Cc1c(-c2ccc(Cl)cc2)nc2ccccn12 [Example 6],410,394
CC(C)(C)OC(=O)N1C2CCC1CN(Cc1c(-c3ccc(Cl)cc3)nc3ccccn13)C2 [Example 10],230,1090
CC(C)(C)OC(=O)N1C2CCC1CN(Cc1c(-c3ccc(Br)cc3)nc3ccccn13)C2 [Example 11],940,1400
CC(C)c1ccc(-c2nc3ccccn3c2CN2CC3CCC(C2)N3C(=O)OC(C)(C)C)cc1 [Example 12],8300,3000
CC(C)(C)OC(=O)N1C2CCC1CN(Cc1c(-c3ccc(Cl)cn3)nc3ccccn13)C2 [Example 14],860,5100
"COc1ccc(F)c(C(=O)N2C3COCC2CN(Cc2c(-c4ccc(Cl)cc4)nc4ccccn24)C3)n1 [Example 30, (7-{[2-(4-Chlorophenyl)imidazo[1,2a]pyridin-3-yl]methyl}-3-oxa-7,9-diazabicyclo[3.3.1]non-9-yl)(3-fluoro-6-methoxypyridin-2-yl)methanone]",21,770
"O=C(c1cccc(OC2CCC2)n1)N1C2COCC1CN(Cc1c(-c3ccc(Cl)cc3)nc3ccccn13)C2 [Example 31, (7-{[2-(4-Chlorophenyl)imidazo[1,2-a]pyridin-3-yl]methyl}-3-oxa-7,9-diazabicyclo[3.3.1]non-9-yl)[6-(cyclobutyloxy)pyridin-2-yl]methanone]",26,310
"COc1ccc(Cl)c(C(=O)N2C3COCC2CN(Cc2c(-c4ccc(Cl)cc4)nc4ccccn24)C3)n1 [Example 32, (3-Chloro-6-methoxypyridin-2-yl)(7-{[2-(4-chlorophenyl)imidazo[1,2-a]pyridin-3-yl]methyl}-3-oxa-7,9-diazabicyclo[3.3.1]non-9-yl)methanone]",9.6,270
O=C(c1ccccc1F)N1CC2CCC1CN2Cc1c(-c2ccc(Cl)cn2)nc2ccccn12 (centres unmarked) [Example 64],17,280
COc1cccc(C(=O)N2CC3CCC2CN3Cc2c(-c3ccc(Cl)cn3)nc3ccccn23)n1 (centres unmarked) [Example 65],460,2000
O=C(c1ccccc1F)N1C2COCC1CN(Cc1c(-c3ccc(Cl)cc3)nc3ccccn13)C2 [Example 69],101,870
COc1cccc(C(=O)N2C3COCC2CN(Cc2c(-c4ccc(Cl)cc4)nc4ccccn24)C3)c1 [Example 70],160,1900
O=C(C1CCCC1)N1C2COCC1CN(Cc1c(-c3ccc(Cl)cc3)nc3ccccn13)C2 [Example 71],24,130
O=C(c1cccc(OC(F)(F)F)c1)N1C2COCC1CN(Cc1c(-c3ccc(Cl)cc3)nc3ccccn13)C2 [Example 72],120,2000

Compound,IC50 (human TASK-3) [nM],IC50 (human TASK-1) [nM]
CC(C)c1ccccc1C(=O)N1C2COCC1CN(Cc1c(-c3ccc(Cl)cc3)nc3ccccn13)C2 [Example 73],9.6,160
COc1ccc(Cl)c(C(=O)N2C3COCC2CN(Cc2c(-c4ccc(Cl)cc4)nc4ccccn24)C3)c1 [Example 74],23,330
COc1ccc(F)cc1C(=O)N1C2COCC1CN(Cc1c(-c3ccc(Cl)cc3)nc3ccccn13)C2 [Example 75],30,380
CC(C)c1cccc(C(=O)N2C3COCC2CN(Cc2c(-c4ccc(Cl)cc4)nc4ccccn24)C3)c1 [Example 76],14,240
O=C(c1cccc(OCC(F)(F)F)n1)N1C2COCC1CN(Cc1c(-c3ccc(Cl)cc3)nc3ccccn13)C2 [Example 77],44,810
O=C(C1CCOC1)N1C2COCC1CN(Cc1c(-c3ccc(Cl)cc3)nc3ccccn13)C2 (centres unmarked) [Example 78],65,1600
O=C(c1cccc(Cl)c1)N1C2COCC1CN(Cc1c(-c3ccc(Cl)cc3)nc3ccccn13)C2 [Example 79],190,1000
O=C(c1cccc(OC(F)(F)F)n1)N1C2COCC1CN(Cc1c(-c3ccc(Cl)cc3)nc3ccccn13)C2 [Example 80],15,310
COc1ccc(C)c(C(=O)N2C3COCC2CN(Cc2c(-c4ccc(Cl)cc4)nc4ccccn24)C3)n1 [Example 81],25,520
O=C(c1ccccc1F)N1CC2CCC(C1)N2Cc1c(-c2ccc(Br)cc2)nc2ccccn12 [Example 82],420,230
COc1cccc(C(=O)N2CC3CCC(C2)N3Cc2c(-c3ccc(Br)cc3)nc3ccccn23)n1 [Example 83],14,134
COc1cccc(C(=O)N2CC3CCC(C2)N3Cc2c(-c3ccc(Br)cc3)nc3ccccn23)c1 [Example 84],400,1100
O=C(C1CCCC1)N1CC2CCC(C1)N2Cc1c(-c2ccc(Br)cc2)nc2ccccn12 [Example 85],53,520
O=C(c1ccccc1F)N1CC2CCC(C1)N2Cc1c(-c2ccc(Cl)cc2)nc2ccccn12 [Example 87],160,583
Cc1ccc(F)cc1C(=O)N1CC2CCC(C1)N2Cc1c(-c2ccc(Cl)cc2)nc2ccccn12 [Example 88],210,766
COc1ccc(F)cc1C(=O)N1CC2CCC(C1)N2Cc1c(-c2ccc(Cl)cc2)nc2ccccn12 [Example 89],220,827
Cc1ccccc1C(=O)N1CC2CCC(C1)N2Cc1c(-c2ccc(Cl)cc2)nc2ccccn12 [Example 90],79,958
COc1ccccc1C(=O)N1CC2CCC(C1)N2Cc1c(-c2ccc(Cl)cc2)nc2ccccn12 [Example 91],89,1350
